Experimental data: ChEMBL document CHEMBL6127119 (J Med Chem, 2024)
Converted amounts (≈) assume the structure as drawn.

How the values were obtained:
Type in all cases: functional
Conditions in all cases: time 16-24 hrs
[1] = system: Klebsiella pneumoniae; assay: Antibacterial activity against Klebsiella pneumoniae clinical isolate incubated for 16 to 24 hrs by CLSI based broth microdilution method
[2] = system: Enterococcus faecium; assay: Antibacterial activity against vancomycin-resistant Enterococcus faecium harboring VanB phenotype incubated for 16 to 24 hrs by CLSI based broth microdilution method
[3] = system: Escherichia coli; assay: Antibacterial activity against Escherichia coli AB1157 incubated for 16 to 24 hrs by CLSI based broth microdilution method
[4] = system: Staphylococcus aureus; assay: Antibacterial activity against vancomycin-intermediate Staphylococcus aureus incubated for 16 to 24 hrs by CLSI based broth microdilution method
[5] = system: Pseudomonas aeruginosa; assay: Antibacterial activity against Pseudomonas aeruginosa PAO1 incubated for 16 to 24 hrs by CLSI based broth microdilution method
[6] = system: Acinetobacter baumannii; assay: Antibacterial activity against Carbapenem-resistant Acinetobacter baumannii clinical isolate incubated for 16 to 24 hrs by CLSI based broth microdilution method
[7] = system: Enterococcus faecium; assay: Antibacterial activity against vancomycin-resistant Enterococcus faecium harboring VanM phenotype incubated for 16 to 24 hrs by CLSI based broth microdilution method
[8] = system: Staphylococcus aureus; assay: Antibacterial activity against methicillin-susceptible Staphylococcus aureus incubated for 16 to 24 hrs by CLSI based broth microdilution method
[9] = system: Enterococcus faecium; assay: Antibacterial activity against vancomycin-resistant Enterococcus faecium harboring VanA phenotype incubated for 16 to 24 hrs by CLSI based broth microdilution method

Row | Compound | MIC [1] | MIC [2] | MIC [3] | MIC [4] | MIC [5] | MIC [6] | MIC [7] | MIC [8] | MIC [9]
1 | CC(C)C[C@@H](N)C(=O)N[C@H]1C(=O)N[C@@H](CC(N)=O)C(=O)N[C@H]2C(=O)N[C@H]3C(=O)N[C@H](C(=O)N[C@H](C(=O)NCCCCCCCCNC(=N)N)c4cc(O)cc(O)c4-c4cc3ccc4O)[C@H](O)c3ccc(c(Cl)c3)Oc3cc2cc(c3O[C@@H]2O[C@H](CO)[C@@H](O)[C@H](O)[C@H]2O[C@H]2C[C@](C)(N)[C@H](O)[C@H](C)O2)Oc2ccc(cc2Cl)[C@H]1O | > 128 µg/mL | 8 µg/mL (≈ 4.99 µM) | 8 µg/mL (≈ 4.99 µM) | 2 µg/mL (≈ 1.25 µM) | 128 µg/mL (≈ 79.8 µM) | 64 µg/mL (≈ 39.9 µM) | 32 µg/mL (≈ 20 µM) | 0.5 µg/mL (≈ 0.312 µM) | 16 µg/mL (≈ 9.98 µM)
2 | CC(C)C[C@@H](N)C(=O)N[C@H]1C(=O)N[C@@H](CC(N)=O)C(=O)N[C@H]2C(=O)N[C@H]3C(=O)N[C@H](C(=O)N[C@H](C(=O)NCc4ccc(-c5ccc(CN)cc5)cc4)c4cc(O)cc(O)c4-c4cc3ccc4O)[C@H](O)c3ccc(c(Cl)c3)Oc3cc2cc(c3O[C@@H]2O[C@H](CO)[C@@H](O)[C@H](O)[C@H]2O[C@H]2C[C@](C)(N)[C@H](O)[C@H](C)O2)Oc2ccc(cc2Cl)[C@H]1O | > 128 µg/mL | 8 µg/mL (≈ 4.91 µM) | 16 µg/mL (≈ 9.82 µM) | 1 µg/mL (≈ 0.614 µM) | > 128 µg/mL | 128 µg/mL (≈ 78.6 µM) | 8 µg/mL (≈ 4.91 µM) | ≤ 0.063 µg/mL | 8 µg/mL (≈ 4.91 µM)
3 | CC(C)C[C@@H](N)C(=O)N[C@H]1C(=O)N[C@@H](CC(N)=O)C(=O)N[C@H]2C(=O)N[C@H]3C(=O)N[C@H](C(=O)N[C@H](C(=O)NCCN)c4cc(O)cc(O)c4-c4cc3ccc4O)[C@H](O)c3ccc(c(Cl)c3)Oc3cc2cc(c3O[C@@H]2O[C@H](CO)[C@@H](O)[C@H](O)[C@H]2O[C@H]2C[C@](C)(N)[C@H](O)[C@H](C)O2)Oc2ccc(cc2Cl)[C@H]1O | > 128 µg/mL | 128 µg/mL (≈ 86.6 µM) | 32 µg/mL (≈ 21.7 µM) | 4 µg/mL (≈ 2.71 µM) | > 128 µg/mL | 128 µg/mL (≈ 86.6 µM) | 128 µg/mL (≈ 86.6 µM) | 2 µg/mL (≈ 1.35 µM) | 128 µg/mL (≈ 86.6 µM)
4 | CN[C@H](CC(C)C)C(=O)N[C@H]1C(=O)N[C@@H](CC(N)=O)C(=O)N[C@H]2C(=O)N[C@H]3C(=O)N[C@H](C(=O)N[C@H](C(=O)O)c4cc(O)c(CNCCCCCCCCNC(=N)N)c(O)c4-c4cc3ccc4O)[C@H](O)c3ccc(c(Cl)c3)Oc3cc2cc(c3O[C@@H]2O[C@H](CO)[C@@H](O)[C@H](O)[C@H]2O[C@H]2C[C@](C)(N)[C@H](O)[C@H](C)O2)Oc2ccc(cc2Cl)[C@H]1O | > 128 µg/mL | 128 µg/mL (≈ 77.7 µM) | 32 µg/mL (≈ 19.4 µM) | 2 µg/mL (≈ 1.21 µM) | 128 µg/mL (≈ 77.7 µM) | 128 µg/mL (≈ 77.7 µM) | 32 µg/mL (≈ 19.4 µM) | 1 µg/mL (≈ 0.607 µM) | 64 µg/mL (≈ 38.8 µM)
5 | CC(C)C[C@@H](N)C(=O)N[C@H]1C(=O)N[C@@H](CC(N)=O)C(=O)N[C@H]2C(=O)N[C@H]3C(=O)N[C@H](C(=O)N[C@H](C(=O)NCCCCCCN)c4cc(O)cc(O)c4-c4cc3ccc4O)[C@H](O)c3ccc(c(Cl)c3)Oc3cc2cc(c3O[C@@H]2O[C@H](CO)[C@@H](O)[C@H](O)[C@H]2O[C@H]2C[C@](C)(N)[C@H](O)[C@H](C)O2)Oc2ccc(cc2Cl)[C@H]1O | > 128 µg/mL | 64 µg/mL (≈ 41.7 µM) | 32 µg/mL (≈ 20.9 µM) | 8 µg/mL (≈ 5.22 µM) | 128 µg/mL (≈ 83.5 µM) | > 128 µg/mL | 64 µg/mL (≈ 41.7 µM) | 2 µg/mL (≈ 1.3 µM) | 64 µg/mL (≈ 41.7 µM)
6 | CC(C)C[C@@H](N)C(=O)N[C@H]1C(=O)N[C@@H](CC(N)=O)C(=O)N[C@H]2C(=O)N[C@H]3C(=O)N[C@H](C(=O)N[C@H](C(=O)NCc4ccc(-c5ccccc5CN)cc4)c4cc(O)cc(O)c4-c4cc3ccc4O)[C@H](O)c3ccc(c(Cl)c3)Oc3cc2cc(c3O[C@@H]2O[C@H](CO)[C@@H](O)[C@H](O)[C@H]2O[C@H]2C[C@](C)(N)[C@H](O)[C@H](C)O2)Oc2ccc(cc2Cl)[C@H]1O | > 128 µg/mL | 4 µg/mL (≈ 2.45 µM) | 8 µg/mL (≈ 4.91 µM) | 0.5 µg/mL (≈ 0.307 µM) | 32 µg/mL (≈ 19.6 µM) | 16 µg/mL (≈ 9.82 µM) | 4 µg/mL (≈ 2.45 µM) | 0.25 µg/mL (≈ 0.153 µM) | 8 µg/mL (≈ 4.91 µM)
7 | CC(C)C[C@@H](N)C(=O)N[C@H]1C(=O)N[C@@H](CC(N)=O)C(=O)N[C@H]2C(=O)N[C@H]3C(=O)N[C@H](C(=O)N[C@H](C(=O)NCCCCCCNC(=N)N)c4cc(O)cc(O)c4-c4cc3ccc4O)[C@H](O)c3ccc(c(Cl)c3)Oc3cc2cc(c3O[C@@H]2O[C@H](CO)[C@@H](O)[C@H](O)[C@H]2O[C@H]2C[C@](C)(N)[C@H](O)[C@H](C)O2)Oc2ccc(cc2Cl)[C@H]1O | > 128 µg/mL | 16 µg/mL (≈ 10.2 µM) | 8 µg/mL (≈ 5.08 µM) | 2 µg/mL (≈ 1.27 µM) | > 128 µg/mL | 128 µg/mL (≈ 81.2 µM) | 32 µg/mL (≈ 20.3 µM) | 0.5 µg/mL (≈ 0.317 µM) | 32 µg/mL (≈ 20.3 µM)
8 | CC(C)C[C@@H](N)C(=O)N[C@H]1C(=O)N[C@@H](CC(N)=O)C(=O)N[C@H]2C(=O)N[C@H]3C(=O)N[C@H](C(=O)N[C@H](C(=O)NCCCCCCCCN)c4cc(O)cc(O)c4-c4cc3ccc4O)[C@H](O)c3ccc(c(Cl)c3)Oc3cc2cc(c3O[C@@H]2O[C@H](CO)[C@@H](O)[C@H](O)[C@H]2O[C@H]2C[C@](C)(N)[C@H](O)[C@H](C)O2)Oc2ccc(cc2Cl)[C@H]1O | > 128 µg/mL | 32 µg/mL (≈ 20.5 µM) | 32 µg/mL (≈ 20.5 µM) | 4 µg/mL (≈ 2.56 µM) | 128 µg/mL (≈ 82 µM) | > 128 µg/mL | 32 µg/mL (≈ 20.5 µM) | 1 µg/mL (≈ 0.64 µM) | 32 µg/mL (≈ 20.5 µM)
9 | CC(C)C[C@@H](N)C(=O)N[C@H]1C(=O)N[C@@H](CC(N)=O)C(=O)N[C@H]2C(=O)N[C@H]3C(=O)N[C@H](C(=O)N[C@H](C(=O)NCCOCCOCCN)c4cc(O)cc(O)c4-c4cc3ccc4O)[C@H](O)c3ccc(c(Cl)c3)Oc3cc2cc(c3O[C@@H]2O[C@H](CO)[C@@H](O)[C@H](O)[C@H]2O[C@H]2C[C@](C)(N)[C@H](O)[C@H](C)O2)Oc2ccc(cc2Cl)[C@H]1O | > 128 µg/mL | 64 µg/mL (≈ 40.9 µM) | 64 µg/mL (≈ 40.9 µM) | 4 µg/mL (≈ 2.56 µM) | > 128 µg/mL | > 128 µg/mL | 64 µg/mL (≈ 40.9 µM) | 0.5 µg/mL (≈ 0.319 µM) | 64 µg/mL (≈ 40.9 µM)
10 | Cc1ccc(-c2ccc(CNC(=O)[C@H]3NC(=O)[C@H]4NC(=O)[C@H](NC(=O)[C@@H]5NC(=O)[C@H](CC(N)=O)NC(=O)[C@H](NC(=O)[C@H](N)CC(C)C)[C@H](O)c6ccc(c(Cl)c6)Oc6cc5cc(c6O[C@@H]5O[C@H](CO)[C@@H](O)[C@H](O)[C@H]5O[C@H]5C[C@](C)(N)[C@H](O)[C@H](C)O5)Oc5ccc(cc5Cl)[C@H]4O)c4ccc(O)c(c4)-c4c(O)cc(O)cc43)cc2)cc1 | > 128 µg/mL | 2 µg/mL (≈ 1.24 µM) | 128 µg/mL (≈ 79.3 µM) | 0.5 µg/mL (≈ 0.31 µM) | > 128 µg/mL | > 128 µg/mL | 8 µg/mL (≈ 4.96 µM) | 0.125 µg/mL (≈ 0.0774 µM) | 8 µg/mL (≈ 4.96 µM)
11 | CC(C)C[C@@H](N)C(=O)N[C@H]1C(=O)N[C@@H](CC(N)=O)C(=O)N[C@H]2C(=O)N[C@H]3C(=O)N[C@H](C(=O)N[C@H](C(=O)O)c4cc(O)c(CNCCCCCCCCN)c(O)c4-c4cc3ccc4O)[C@H](O)c3ccc(c(Cl)c3)Oc3cc2cc(c3O[C@@H]2O[C@H](CO)[C@@H](O)[C@H](O)[C@H]2O[C@H]2C[C@](C)(N)[C@H](O)[C@H](C)O2)Oc2ccc(cc2Cl)[C@H]1O | > 128 µg/mL | 64 µg/mL (≈ 40.2 µM) | 128 µg/mL (≈ 80.4 µM) | 4 µg/mL (≈ 2.51 µM) | 128 µg/mL (≈ 80.4 µM) | 128 µg/mL (≈ 80.4 µM) | 128 µg/mL (≈ 80.4 µM) | 4 µg/mL (≈ 2.51 µM) | 128 µg/mL (≈ 80.4 µM)
12 | CC(C)C[C@@H](N)C(=O)N[C@H]1C(=O)N[C@@H](CC(N)=O)C(=O)N[C@H]2C(=O)N[C@H]3C(=O)N[C@H](C(=O)N[C@H](C(=O)NCc4ccc(-c5cccc(CN)c5)cc4)c4cc(O)cc(O)c4-c4cc3ccc4O)[C@H](O)c3ccc(c(Cl)c3)Oc3cc2cc(c3O[C@@H]2O[C@H](CO)[C@@H](O)[C@H](O)[C@H]2O[C@H]2C[C@](C)(N)[C@H](O)[C@H](C)O2)Oc2ccc(cc2Cl)[C@H]1O | > 128 µg/mL | 8 µg/mL (≈ 4.91 µM) | 16 µg/mL (≈ 9.82 µM) | 0.5 µg/mL (≈ 0.307 µM) | 128 µg/mL (≈ 78.6 µM) | > 128 µg/mL | 2 µg/mL (≈ 1.23 µM) | 0.125 µg/mL (≈ 0.0767 µM) | 8 µg/mL (≈ 4.91 µM)
13 | CC(C)C[C@@H](N)C(=O)N[C@H]1C(=O)N[C@@H](CC(N)=O)C(=O)N[C@H]2C(=O)N[C@H]3C(=O)N[C@H](C(=O)N[C@H](C(=O)NCCc4ccc(-c5ccc(CN)cc5)cc4)c4cc(O)cc(O)c4-c4cc3ccc4O)[C@H](O)c3ccc(c(Cl)c3)Oc3cc2cc(c3O[C@@H]2O[C@H](CO)[C@@H](O)[C@H](O)[C@H]2O[C@H]2C[C@](C)(N)[C@H](O)[C@H](C)O2)Oc2ccc(cc2Cl)[C@H]1O | > 128 µg/mL | 8 µg/mL (≈ 4.87 µM) | 8 µg/mL (≈ 4.87 µM) | 1 µg/mL (≈ 0.608 µM) | > 128 µg/mL | 128 µg/mL (≈ 77.9 µM) | 8 µg/mL (≈ 4.87 µM) | 0.25 µg/mL (≈ 0.152 µM) | 4 µg/mL (≈ 2.43 µM)
14 | CN[C@H](CC(C)C)C(=O)N[C@H]1C(=O)N[C@@H](CC(N)=O)C(=O)N[C@H]2C(=O)N[C@H]3C(=O)N[C@H](C(=O)N[C@H](C(=O)N[C@H](CCCNC(=N)N)C(N)=O)c4cc(O)cc(O)c4-c4cc3ccc4O)[C@H](O)c3ccc(c(Cl)c3)Oc3cc2cc(c3O[C@@H]2O[C@H](CO)[C@@H](O)[C@H](O)[C@H]2O[C@H]2C[C@](C)(N)[C@H](O)[C@H](C)O2)Oc2ccc(cc2Cl)[C@H]1O | 128 µg/mL (≈ 79.8 µM) | 16 µg/mL (≈ 9.97 µM) | 8 µg/mL (≈ 4.99 µM) | 1 µg/mL (≈ 0.623 µM) | > 128 µg/mL | 32 µg/mL (≈ 19.9 µM) | 32 µg/mL (≈ 19.9 µM) | 0.5 µg/mL (≈ 0.312 µM) | 8 µg/mL (≈ 4.99 µM)
